This passage reports IC50 results from US20110177105A1, “Novel Selective Inhibitors of Ubiquitin Specific Protease 7, the Pharmaceutical Compositions Thereof and Their Therapeutic Applications” (priority 2010, published 2011).

SMILES strings stand for the structures.

This experiment deals with USP7 (Homo sapiens, UniProt Q93009). Briefly: USP7 activity assay (Ub-AMC). In kind it is biochemical. On the set-up: Full-length wild-type human USP7 and its catalytic mutant (cysteine 223 replaced by alanine, C223A) were produced as N-terminally His-tagged fusions; His tag (pFastBac-HT) (N); made in house; host or cells: Spodoptera frugiperda Sf9 (or High Five) insect cells, baculovirus. Particulars: 300 nM Ub-AMC, 100 pM enzyme, 30 min pre-incubation; read-out: USP7 (inhibition of deubiquitinating activity). The source says: The cDNA encoding USP7 was obtained by PCR amplification from placenta mRNA. USP7 cDNA was subcloned by PCR into a baculovirus expression vector (pFastBac-HT; Invitrogen). Full-length wild-type human USP7 and its catalytic mutant (cysteine 223 replaced by alanine, C223A) were produced as N-terminally His-tagged fusions in Spodoptera frugiperda cells (Sf9, Invitrogen), using the Bac-to-Bac Baculovirus system from Invitrogen according to the manufacturer's instructions. pFastBac-HT-B-USP7 was used to transform DH10bac cells (Invitrogen), and blue/white selection was carried out on X-gal/IPTG agar plates. Bacmid DNA was prepared by an alkaline lysis procedure. The integrity of the bacmid minipreps and their orientation were checked by PCR, using generic and specific primers. Sf9 insect cells were cultured in InsectXpress medium (Cambrex) at 27° C. and transfected with the corresponding bacmid, using GeneShuttle 40 (Q-BIOgen). Viruses were recovered in the supernatant 72 h after transfection. Viruses were amplified by infecting insect cells (Sf9 or High Five cells; invitrogen) in 50 ml InsectXpress medium in a 150 cm^2 cell culture flask with 500 μl of the supernatant from transfected Sf9 cells. Following the second round of amplification, infected cells were recovered by rapid SDS lysis, boiled for 5 min at 100° C., sonicated briefly and centrifuged for 20 min at 14,000 g. Expression levels in infected Sf9 cells were compared with those in uninfected cells. Fusion proteins were then allowed to bind to TALON beads (BD Biosciences, TALON metal affinity resin) for 30 min at 4° C. with gentle rocking. Beads were extensively washed (50 mM sodium phosphate buffer pH 7.0, 500 mM NaCl, 10 mM Imidazole, 0.5% Triton X-100 and 10% glycerol) and bound proteins were eluted in wash buffer supplemented with 250 mM Imidazole (Sigma). Eluted fractions were resolved on 4-12% NuPAGE gels (Novex, Invitrogen). Fractions containing high concentrations of purified proteins (purity>95%) were dialyzed (20 mM Tris HCl pH 7.6, 200 mM NaCl, 1 mM DTT, 1 mM EDTA and 10% glycerol) were aliquoted and snap frozen in liquid nitrogen before storage at −80° C.
Chain of USP7 (Q93009 whole entry, the tested form may be a part): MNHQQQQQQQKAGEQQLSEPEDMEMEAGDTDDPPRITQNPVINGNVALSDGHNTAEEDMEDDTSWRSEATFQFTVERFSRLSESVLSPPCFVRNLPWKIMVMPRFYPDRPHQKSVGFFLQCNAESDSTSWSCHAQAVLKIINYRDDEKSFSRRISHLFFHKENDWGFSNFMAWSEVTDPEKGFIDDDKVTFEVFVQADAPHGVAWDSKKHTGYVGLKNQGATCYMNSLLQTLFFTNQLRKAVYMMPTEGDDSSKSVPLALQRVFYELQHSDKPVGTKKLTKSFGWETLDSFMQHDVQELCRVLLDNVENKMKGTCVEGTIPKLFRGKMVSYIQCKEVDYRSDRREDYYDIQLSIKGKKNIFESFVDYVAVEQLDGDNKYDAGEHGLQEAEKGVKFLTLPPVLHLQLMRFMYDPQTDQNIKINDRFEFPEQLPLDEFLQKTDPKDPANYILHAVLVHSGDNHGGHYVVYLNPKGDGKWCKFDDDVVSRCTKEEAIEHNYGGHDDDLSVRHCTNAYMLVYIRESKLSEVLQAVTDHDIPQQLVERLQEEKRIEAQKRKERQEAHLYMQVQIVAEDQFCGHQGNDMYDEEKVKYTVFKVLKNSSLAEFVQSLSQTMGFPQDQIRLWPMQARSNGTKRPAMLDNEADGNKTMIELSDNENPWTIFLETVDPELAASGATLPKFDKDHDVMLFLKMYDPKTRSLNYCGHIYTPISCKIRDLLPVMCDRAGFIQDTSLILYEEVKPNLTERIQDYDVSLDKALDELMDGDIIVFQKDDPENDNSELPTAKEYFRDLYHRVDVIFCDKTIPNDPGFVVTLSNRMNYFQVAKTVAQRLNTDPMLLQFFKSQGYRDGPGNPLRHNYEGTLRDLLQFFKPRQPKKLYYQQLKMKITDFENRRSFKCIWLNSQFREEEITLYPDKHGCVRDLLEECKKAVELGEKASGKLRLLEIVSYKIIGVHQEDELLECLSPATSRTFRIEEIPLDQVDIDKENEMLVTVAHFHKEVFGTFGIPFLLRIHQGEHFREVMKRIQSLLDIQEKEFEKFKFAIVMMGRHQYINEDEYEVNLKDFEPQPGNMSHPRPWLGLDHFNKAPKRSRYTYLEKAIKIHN
USP7 was diluted in USP buffer (50 mM Tris HCl; 0.5 mM EDTA; 5 mM DTT; 0.01% Triton X-100; Bovine Serum Albumin 0.05 mg·ml^−1 pH 7.6). Compounds stocks (10 mM) were stored at −20° C. in DMSO. Compounds were tested at different concentrations: from 200 μM to 91 nM.
Reactions were performed as duplicates in Black 384 well plates (small volumes microplates; Greiner; 10 μl final reaction volume). The substrate concentration for USP7 was 300 nM Ub-AMC (Chem. Biol., 2003, 10, p. 837-846) (Boston Biochem). The concentrations of the enzyme (USP7) in specificity assays was 100 pM. The concentrations were determined in order to perform specificity assays under initial velocities at fixed substrate concentration. Compounds were pre-incubated with enzymes for 30 minutes at 25° C. Reactions were initiated by addition of substrate to the plates containing the enzymes (+/−compounds) diluted in assay buffer. Reactions were incubated for 60 minutes at 37° C. Reactions were stopped by adding acetic acid (100 mM final). Readings were performed on a Pherastar Fluorescent Reader (BMG). λ Emission 380 nm; λ Excitation=460 nm. Data (mean values+/−standard deviation) were analyzed as % of control (no compound) and plotted as percentage versus the Log of the compound concentration using GraphPad (Prism). Data were fitted to a sigmoidal model (variable slope).

As to `CCCN(CCC)CCNC(=O)c1ccc2c(Cl)c3c(nc2c1)CCCC3` [Example 3, 9-Chloro-5,6,7,8-tetrahydro-acridine-3-carboxylic acid (2-dipropylamino-ethyl)-amide], the IC50 turned out to be 12.4 µM.

Take `CCN(CC)CCNC(=O)c1ccc2c(Cl)c3c(nc2c1)CCCC3` [Example 7, 9-Chloro-5,6,7,8-tetrahydro-acridine-3-carboxylic acid (2-diethylamino-ethyl)-amide]: the IC50 stood at 24.9 µM.

Consider `O=C(c1ccc2c(Cl)c3c(nc2c1)CCCC3)N1CCC(N2CCCCC2)CC1` [Example 16, [1,4′]Bipiperidinyl-1′-yl-(9-chloro-5,6,7,8-tetrahydro-acridin-3-yl)-methanone], for which the IC50 was found to be 46 µM.

In the case of `CCN1CCCC1CNC(=O)c1ccc2c(Cl)c3c(nc2c1)CCCC3` (stereo not shown) [Example 2, 9-Chloro-5,6,7,8-tetrahydro-acridine-3-carboxylic acid (1-ethyl-pyrrolidin-2-ylmethyl)-amide], the IC50 came out at 11.5 µM.

As to `CC1CCCC(C)N1CCCNC(=O)c1ccc2c(Cl)c3c(nc2c1)CCCC3` (stereo not shown) [Example 9, 9-Chloro-5,6,7,8-tetrahydro-acridine-3-carboxylic acid [3-(2,6-dimethyl-piperidin-1-yl)-propyl]-amide], the IC50 worked out at 28.7 µM.

Take `O=C(NCCCN1CCCC1)c1ccc2c(Cl)c3c(nc2c1)CCCC3` [Example 8, 9-Chloro-5,6,7,8-tetrahydro-acridine-3-carboxylic acid (3-pyrrolidin-1-yl-propyl)-amide]: the IC50 came out at 25.6 µM.

With `CCN(CCCNC(=O)c1ccc2c(Cl)c3c(nc2c1)CCCC3)Cc1ccccc1` [Example 5, 9-Chloro-5,6,7,8-tetrahydro-acridine-3-carboxylic acid [3-(benzyl-ethyl-amino)-propyl]-amide], the IC50 amounted to 22.6 µM.

Regarding `CCCN(CCC)CCCNC(=O)c1ccc2c(Cl)c3c(nc2c1)CCCC3` [Example 6, 9-Chloro-5,6,7,8-tetrahydro-acridine-3-carboxylic acid (3-dipropylamino-propyl)-amide], the IC50 came to 23.8 µM.

As for `CN(C)CCNC(=O)c1ccc2c(Cl)c3c(nc2c1)CCCC3` [Example 11, 9-Chloro-5,6,7,8-tetrahydro-acridine-3-carboxylic acid (2-dimethylamino-ethyl)-amide], the IC50 was determined as 29.8 µM.

Regarding `CCN(CC)CCCNC(=O)c1ccc2c(Cl)c3c(nc2c1)CCCC3` [Example 10, 9-Chloro-5,6,7,8-tetrahydro-acridine-3-carboxylic acid (3-diethylamino-propyl)-amide], the IC50 came out at 29.2 µM.

For the compound `CN(CCCNC(=O)c1ccc2c(Cl)c3c(nc2c1)CCCC3)Cc1ccccc1` [Example 14, 9-Chloro-5,6,7,8-tetrahydro-acridine-3-carboxylic acid [3-(benzyl-methyl-amino)-propyl]-amide], the IC50 amounted to 28.1 µM.

With `O=C(c1ccc2c(Cl)c3c(nc2c1)CCCC3)N1CCCCCC1` [Example 12, Azepan-1-yl-(9-chloro-5,6,7,8-tetrahydro-acridin-3-yl)-methanone], the IC50 was found to be 37.9 µM.

Consider `CCCCN(CC)CCNC(=O)c1ccc2c(Cl)c3c(nc2c1)CCCC3` [Example 4, 9-Chloro-5,6,7,8-tetrahydro-acridine-3-carboxylic acid [2-(butyl-ethyl-amino)-ethyl]-amide], for which the IC50 was found to be 23.5 µM.

Take `Cc1cccc(CN2CCC(CNC(=O)c3ccc4c(Cl)c5c(nc4c3)CCCC5)CC2)c1` [Example 1, 9-Chloro-5,6,7,8-tetrahydro-acridine-3-carboxylic acid [1-(3-methyl-benzyl)-piperidin-4-ylmethyl]-amide]: the IC50 was 9.1 µM.

For `CCCN1CCN(CCCNC(=O)c2ccc3c(Cl)c4c(nc3c2)CCCC4)CC1` [Example 13, 9-Chloro-5,6,7,8-tetrahydro-acridine-3-carboxylic acid [3-(4-propyl-piperazin-1-yl)-propyl]-amide], the IC50 is 37.9 µM.

Regarding `CN1CCN(CCCNC(=O)c2ccc3c(Cl)c4c(nc3c2)CCCC4)CC1` [Example 15, 9-Chloro-5,6,7,8-tetrahydro-acridine-3-carboxylic acid [3-(4-methyl-piperazin-1-yl)-propyl]-amide], the IC50 was found to be 43 µM.
